Tested on: 171881-019-R-J1-PDC tumor spheroids, viability
Assay: Anticancer human tumor 171881-019-R-J1-PDC patient-derived invasive breast carcinoma cell line growth inhibition [GQUAD]
Settings: spheroids with HUVEC and MSC; for IC50: curve of first compound; for viability, T/C: stronger effect = lower value; active means viability on the fitted dose curve at most 10% of control; inactive means the rest
Procedure, shortened: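 Multi-cell-type spheroids of tumor cells with HUVEC and mesenchymal stem cells, treated with drug combinations. Concentrations descend in half-log steps from near clinical Cmax, or from 10 microM where Cmax is unknown; viability read-out.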

[1] = second compound 0.0316 µM, first compound 0.0316 µM
[2] = second compound 0.0316 µM, first compound 0.1 µM
[3] = second compound 0.0316 µM, first compound 0.316 µM
[4] = second compound 0.0316 µM, first compound 1 µM
[5] = second compound 0.0316 µM, first compound 3.16 µM
[6] = second compound 0.0316 µM, first compound 10 µM
[7] = second compound 0.1 µM, first compound 0.0316 µM
[8] = second compound 0.1 µM, first compound 0.1 µM
[9] = second compound 0.1 µM, first compound 0.316 µM
[10] = second compound 0.1 µM, first compound 1 µM
[11] = second compound 0.1 µM, first compound 3.16 µM
[12] = second compound 0.1 µM, first compound 10 µM
[13] = second compound 0.316 µM, first compound 0.0316 µM
[14] = second compound 0.316 µM, first compound 0.1 µM
[15] = second compound 0.316 µM, first compound 0.316 µM
[16] = second compound 0.316 µM, first compound 1 µM
[17] = second compound 0.316 µM, first compound 3.16 µM
[18] = second compound 0.316 µM, first compound 10 µM
[19] = second compound 1 µM, first compound 0.0316 µM
[20] = second compound 1 µM, first compound 0.1 µM
[21] = second compound 1 µM, first compound 0.316 µM
[22] = second compound 1 µM, first compound 1 µM
[23] = second compound 1 µM, first compound 3.16 µM
[24] = second compound 1 µM, first compound 10 µM
[25] = second compound 3.16 µM, first compound 0.0316 µM
[26] = second compound 3.16 µM, first compound 0.1 µM
[27] = second compound 3.16 µM, first compound 0.316 µM
[28] = second compound 3.16 µM, first compound 1 µM
[29] = second compound 3.16 µM, first compound 3.16 µM
[30] = second compound 3.16 µM, first compound 10 µM
[31] = second compound 10 µM, first compound 0.0316 µM
[32] = second compound 10 µM, first compound 0.1 µM
[33] = second compound 10 µM, first compound 0.316 µM
[34] = second compound 10 µM, first compound 1 µM
[35] = second compound 10 µM, first compound 3.16 µM
[36] = second compound 10 µM, first compound 10 µM
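Further: spheroids exposed to compounds for 7 days.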
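Wherever viability, T/C is given: 100% = DMSO vehicle control viability.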

CC(C)n1c(=O)n(C)c2cnc3cc(F)c(-c4ccc(OCCCN5CCCCC5)nc4)cc3c21 + Cc1[nH]c2ccc(F)cc2c1-c1nc2c3cccnc3c3ncccc3c2[nH]1
< 31.6 nM: IC50 (second compound 3.16 µM)
362 nM: IC50 (second compound 10 µM)
3350 nM: IC50 (second compound 0.1 µM)
3360 nM: IC50 (second compound 0.0316 µM)
2420 nM: IC50 (second compound 0.316 µM)
inactive: viability, T/C [1] 103% | viability, T/C [2] 94.3% | viability, T/C [3] 95.4% | viability, T/C [4] 84.7% | viability, T/C [5] 51.1% | viability, T/C [6] 22.8% | viability, T/C [7] 97.3% | viability, T/C [8] 104% | viability, T/C [9] 93.4% | viability, T/C [10] 79.8% | viability, T/C [11] 51.7% | viability, T/C [12] 23.8% | viability, T/C [13] 95.9% | viability, T/C [14] 93.2% | viability, T/C [15] 64.5% | viability, T/C [16] 67.8% | viability, T/C [17] 50% | viability, T/C [18] 21.9% | viability, T/C [19] 89.7% | viability, T/C [20] 75.5% | viability, T/C [21] 84.8% | viability, T/C [22] 68% | viability, T/C [23] 43.2% | viability, T/C [24] 26.9% | viability, T/C [25] 28.7% | viability, T/C [26] 29.2% | viability, T/C [27] 23.4% | viability, T/C [28] 23.3% | viability, T/C [29] 19.1% | viability, T/C [30] 12% | viability, T/C [31] 65.7% | viability, T/C [32] 49.8% | viability, T/C [33] 52.4% | viability, T/C [34] 43.4% | viability, T/C [35] 34.3% | viability, T/C [36] 16.5%
2310 nM: IC50 (second compound 1 µM)

CC1COCCN1c1cc(C2(O)CC3CCC(C2)O3)c2cnn(-c3ccn[nH]3)c2n1 (stereo not given) + Cc1[nH]c2ccc(F)cc2c1-c1nc2c3cccnc3c3ncccc3c2[nH]1
33.8 nM: IC50 (second compound 0.316 µM)
active: viability, T/C [3] 10.3% | viability, T/C [4] 5.52% | viability, T/C [5] 4.37% | viability, T/C [6] 4.08% | viability, T/C [9] 9.69% | viability, T/C [10] 5.6% | viability, T/C [11] 3.81% | viability, T/C [12] 3.56% | viability, T/C [15] 9.82% | viability, T/C [16] 5.18% | viability, T/C [17] 4.67% | viability, T/C [18] 3.78% | viability, T/C [21] 9.46% | viability, T/C [22] 5.53% | viability, T/C [23] 5.14% | viability, T/C [24] 3.53% | viability, T/C [27] 6.92% | viability, T/C [28] 4.31% | viability, T/C [29] 4.06% | viability, T/C [30] 1.96% | viability, T/C [33] 7.38% | viability, T/C [34] 5.1% | viability, T/C [35] 4.66% | viability, T/C [36] 3.28%
inactive: viability, T/C [1] 52.8% | viability, T/C [2] 20.5% | viability, T/C [7] 55.6% | viability, T/C [8] 20.6% | viability, T/C [13] 52.1% | viability, T/C [14] 20.3% | viability, T/C [19] 36.9% | viability, T/C [20] 15.5% | viability, T/C [25] 15.7% | viability, T/C [26] 10.5% | viability, T/C [31] 14.8% | viability, T/C [32] 12.1%
< 31.6 nM: IC50 (second compound 1 µM) | IC50 (second compound 3.16 µM) | IC50 (second compound 10 µM)
34.5 nM: IC50 (second compound 0.0316 µM)
38.1 nM: IC50 (second compound 0.1 µM)

Cc1cccc(N(C)C(=O)C2C(O)CCN2c2nc(C)cc(C(F)(F)F)c2C#N)c1 (stereo not given) + Cc1[nH]c2ccc(F)cc2c1-c1nc2c3cccnc3c3ncccc3c2[nH]1
> 10000 nM: IC50 (second compound 0.0316 µM) | IC50 (second compound 0.1 µM) | IC50 (second compound 0.316 µM) | IC50 (second compound 1 µM)
inactive: viability, T/C [1] 113% | viability, T/C [2] 94.4% | viability, T/C [3] 95.6% | viability, T/C [4] 95.9% | viability, T/C [5] 100% | viability, T/C [6] 69% | viability, T/C [7] 105% | viability, T/C [8] 106% | viability, T/C [9] 93.7% | viability, T/C [10] 90.3% | viability, T/C [11] 81.9% | viability, T/C [12] 77.8% | viability, T/C [13] 97.4% | viability, T/C [14] 95.3% | viability, T/C [15] 91.9% | viability, T/C [16] 91.4% | viability, T/C [17] 102% | viability, T/C [18] 80.7% | viability, T/C [19] 91.7% | viability, T/C [20] 77.7% | viability, T/C [21] 91.8% | viability, T/C [22] 74.6% | viability, T/C [23] 90.5% | viability, T/C [24] 79% | viability, T/C [25] 23.7% | viability, T/C [26] 18.9% | viability, T/C [27] 30.2% | viability, T/C [28] 25.2% | viability, T/C [29] 20.3% | viability, T/C [30] 22.3% | viability, T/C [31] 47.4% | viability, T/C [32] 59% | viability, T/C [33] 48.1% | viability, T/C [34] 60.5% | viability, T/C [35] 48.8% | viability, T/C [36] 44.3%
< 31.6 nM: IC50 (second compound 3.16 µM)
3920 nM: IC50 (second compound 10 µM)

Cn1ncnc1[C@H]1c2n[nH]c(=O)c3cc(F)cc(c23)N[C@@H]1c1ccc(F)cc1 + Cc1[nH]c2ccc(F)cc2c1-c1nc2c3cccnc3c3ncccc3c2[nH]1
< 0.999 nM: IC50 (second compound 3.16 µM) | IC50 (second compound 10 µM)
> 316 nM: IC50 (second compound 0.0316 µM) | IC50 (second compound 0.1 µM) | IC50 (second compound 0.316 µM) | IC50 (second compound 1 µM)
inactive: viability, T/C (second compound 0.0316 µM, first compound 0.000999 µM) 97.1% | viability, T/C (second compound 0.0316 µM, first compound 0.00316 µM) 94.5% | viability, T/C (second compound 0.0316 µM, first compound 0.00999 µM) 93.2% | viability, T/C [1] 101% | viability, T/C (second compound 0.0316 µM, first compound 0.0999 µM) 94.6% | viability, T/C [3] 84.5% | viability, T/C (second compound 0.1 µM, first compound 0.000999 µM) 88.5% | viability, T/C (second compound 0.1 µM, first compound 0.00316 µM) 106% | viability, T/C (second compound 0.1 µM, first compound 0.00999 µM) 90% | viability, T/C [7] 101% | viability, T/C (second compound 0.1 µM, first compound 0.0999 µM) 99.1% | viability, T/C [9] 87.6% | viability, T/C (second compound 0.316 µM, first compound 0.000999 µM) 102% | viability, T/C (second compound 0.316 µM, first compound 0.00316 µM) 107% | viability, T/C (second compound 0.316 µM, first compound 0.00999 µM) 91.9% | viability, T/C [13] 84.8% | viability, T/C (second compound 0.316 µM, first compound 0.0999 µM) 102% | viability, T/C [15] 82.4% | viability, T/C (second compound 1 µM, first compound 0.000999 µM) 79% | viability, T/C (second compound 1 µM, first compound 0.00316 µM) 76.8% | viability, T/C (second compound 1 µM, first compound 0.00999 µM) 81% | viability, T/C [19] 75% | viability, T/C (second compound 1 µM, first compound 0.0999 µM) 89.1% | viability, T/C [21] 78.6% | viability, T/C (second compound 3.16 µM, first compound 0.000999 µM) 20.5% | viability, T/C (second compound 3.16 µM, first compound 0.00316 µM) 18.4% | viability, T/C (second compound 3.16 µM, first compound 0.00999 µM) 23.2% | viability, T/C [25] 21.1% | viability, T/C (second compound 3.16 µM, first compound 0.0999 µM) 19.7% | viability, T/C [27] 17.1% | viability, T/C (second compound 10 µM, first compound 0.000999 µM) 48.6% | viability, T/C (second compound 10 µM, first compound 0.00316 µM) 52.7% | viability, T/C (second compound 10 µM, first compound 0.00999 µM) 55.2% | viability, T/C [31] 47.3% | viability, T/C (second compound 10 µM, first compound 0.0999 µM) 56.7% | viability, T/C [33] 58.1%

O=C(c1cc(Cc2n[nH]c(=O)c3ccccc23)ccc1F)N1CCN(C(=O)C2CC2)CC1 + Cc1[nH]c2ccc(F)cc2c1-c1nc2c3cccnc3c3ncccc3c2[nH]1
inactive: viability, T/C [1] 95.7% | viability, T/C [2] 105% | viability, T/C [3] 102% | viability, T/C [4] 106% | viability, T/C [5] 99.3% | viability, T/C [6] 89.3% | viability, T/C [7] 102% | viability, T/C [8] 103% | viability, T/C [9] 96.7% | viability, T/C [10] 95.7% | viability, T/C [11] 89.1% | viability, T/C [12] 80.3% | viability, T/C [13] 91.7% | viability, T/C [14] 107% | viability, T/C [15] 107% | viability, T/C [16] 96.2% | viability, T/C [17] 91.6% | viability, T/C [18] 81.9% | viability, T/C [19] 86.5% | viability, T/C [20] 75.6% | viability, T/C [21] 91.3% | viability, T/C [22] 80.6% | viability, T/C [23] 87.2% | viability, T/C [24] 78.4% | viability, T/C [25] 27.8% | viability, T/C [26] 23.5% | viability, T/C [27] 24.4% | viability, T/C [28] 31.8% | viability, T/C [29] 28.9% | viability, T/C [30] 25.7% | viability, T/C [31] 55.1% | viability, T/C [32] 51.2% | viability, T/C [33] 57.2% | viability, T/C [34] 60.7% | viability, T/C [35] 60.5% | viability, T/C [36] 49.5%
< 31.6 nM: IC50 (second compound 3.16 µM)
> 10000 nM: IC50 (second compound 0.0316 µM) | IC50 (second compound 0.1 µM) | IC50 (second compound 0.316 µM) | IC50 (second compound 1 µM) | IC50 (second compound 10 µM)

From PubChem BioAssay AID2060498 (Molecular Pharmacology Branch, DTP, NCI, 2025)
